What was measured:
RAW264.7 macrophages = experiment: Cellular NBD-cholesterol efflux assay in RAW264.7 macrophages; assay type: cell-based
Protocol: RAW264.7 cells were obtained from the National Infrastructure of Cell Line Resource of Beijing, China, and the cells used for the experiment were cultured for at least three passages. Dulbecco’s Modified Eagle’s Medium (DMEM)-F12 medium containing 10% fetal bovine serum (FBS) was employed to culture the RAW264.7 cells. RAW264.7 cells were incubated at 37°C with 5% carbon dioxide. The RAW264.7 cells were plated at 2.5×10^5 cells/well (6-well plates), 6.0×10^4 cells/well (24-well plates), and 10^4 cells/well (96-well plates). […] Then the cells were used for the quantitative reverse transcription (qRT)-PCR, cellular cholesterol efflux assay, and foam cell formation experiment.
RAW264.7 cells or mouse peritoneal macrophages were plated in 96-well plates at 10^4 cells/well and cultured with DMEM-F12 containing 10% FBS and 1μg/mL 22-[N-(7-nitrobenz-2-oxa-1,3-diazol-4-yl)amino]-23,24-bisnor-5-cholen-3β-Ol (NBD-cholesterol) for 24 h. […] NBD-cholesterol in the medium and cell lysis buffer were measured, respectively, using a Tecan Infinite® M1000Pro Microplate Reader (Tecan Group Ltd.) at 485-nm excitation wavelength and 535-nm emission wavelength. Cholesterol efflux was expressed as a percentage of fluorescence in the medium relative to the total amount of fluorescence.

ABCA1 = experiment: qRT-PCR of ABCA1 in peritoneal macrophages isolated from exposed C57BL/6 mice; assay type: in vivo, mouse; conditions: 200 mg/kg BW oral gavage for 7 d, control set to 1, p<0.01
Protocol: (§1) Total RNA was isolated from RAW264.7 cells and mouse peritoneal macrophages using TRIzol reagent according to the manufacturer’s instructions. Then a Nanovue Plus™ spectrophotometer (GE Healthcare Life Science) was used to analyze the concentration, quality, and purity of the RNA. Total RNA ( 1μg ) was mixed with oligo deoxythymine (dT) ( 1μL ) at 70°C for 5 min and then combined with a mixture containing Moloney murine leukemia virus (MMLV) reverse transcriptase ( 1μL ), deoxy-ribonucleoside triphosphate (dNTP) ( 1.25μL ), Recombinant RNasin® Ribonuclease Inhibitor (Promega) ( 0.65μL ), and MMLV buffer ( 5μL ) at 42°C for 60 min. The SYBR® Green PCR Kit (TOYOBO) was used for RT-PCR analysis. Real-time fluorescence detection was performed using the StepOnePlus™ sequence detection system (Applied Biosystems). […]
(§2) All experiments related to animals were approved by the institutional animal care and use committee of Peking University and followed the guidelines for animal experiments of the university as well as for experimental animals in China. […] Body weight (BW) was measured every week during the dosing period. […] Considering that this study assessed the effects of short-term exposure to TPHP, whereas humans are exposed to TPHP over a lifelong period, the present study used exposure doses that were higher than that of human exposure from house dust. […]

ABCG1 = experiment: qRT-PCR of ABCG1 in peritoneal macrophages isolated from exposed C57BL/6 mice; assay type: in vivo, mouse; conditions: 200 mg/kg BW oral gavage for 7 d, control set to 1, p<0.01
Protocol: as §1, §2

human LXRβ = biological target: T1, human LXRβ (Homo sapiens, UniProt P55055); experiment: cell-based
T1 sequence (P55055 219-460): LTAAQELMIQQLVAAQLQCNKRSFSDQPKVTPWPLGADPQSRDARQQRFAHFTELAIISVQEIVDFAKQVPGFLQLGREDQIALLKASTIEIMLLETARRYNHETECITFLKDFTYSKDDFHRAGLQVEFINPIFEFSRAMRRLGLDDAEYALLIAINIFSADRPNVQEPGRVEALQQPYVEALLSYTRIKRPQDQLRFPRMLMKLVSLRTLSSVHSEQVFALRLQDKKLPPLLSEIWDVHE

O=P(Oc1ccccc1)(Oc1ccccc1)Oc1ccccc1 [TPHP, triphenyl phosphate]
NBD-cholesterol efflux mediated by ApoA-I (RAW264.7 macrophages; 100–20,000 nM): significantly inhibited
NBD-cholesterol efflux mediated by HDL (RAW264.7 macrophages; 1,000–20,000 nM): significantly inhibited
ABCA1 gene expression in peritoneal macrophages relative to control (ABCA1): 0.51±0.07 fold
ABCG1 gene expression in peritoneal macrophages relative to control (ABCG1): 0.30±0.08 fold
IC50 (human LXRβ): 762 nM
